Results published in patent US5166204A, “Isoindole derivatives and salts thereof and antitumor agent comprising the same” (Toyama Chemical Co., Ltd., priority 1989, dated 1992).
Values after ≈ are worked out from the molar mass of the structure shown. Structures can show the parent of a compound that is named as a salt. Where two headings read alike, the source gives them in different places.

How the values were obtained:
[1] = test system: HeLa S-3 cells; test: HeLa S-3 cell growth inhibition test; format: cell-based; settings: Homo sapiens, 96 h; HeLa S-3 cells, 37° C., 4 days, Giemsa's staining; read-out: minimum growth inhibition concentration (MIC)
Method: (a) HeLa S-3 Cell Growth Inhibition Test
A test compound was appropriately diluted with a liquid medium (a minimum essential medium containing a 10% fecal calf serum). The resulting liquid was poured into each well of a 96-well micro titer plate, in an amount of 0.1 ml/well. Then, HeLa S-3 cells were diluted with the same liquid medium so that the cell concentration became 2×10^4 cells/ml, and the resulting liquid was poured into each well of the above plate in an amount of 0.1 ml/well. The resulting plate was allowed to stand in a CO2 gas incubator of 37° C. for 4 days, to effect incubation. After the incubation, the supernatant liquid in each well was removed and fixation by ethanol was effected for 10 minutes. The fixed cells were tinted with a Giemsa's staining solution to determine the minimum growth inhibition concentration (MIC) of test compound for HeLa S-3 cells.

[2] = test system: Ehrlich solid cancer; test: Effect on Ehrlich solid cancer (tumor weight in mice); format: in vivo, ddY strain mice; settings: Mus musculus, iv, 240 h; for response vs control in vivo at 10 mg/kg: 10 mg/kg i.v.; for response vs control in vivo at 7 mg/kg: 7 mg/kg i.v.; for response vs control in vivo at 14 mg/kg: 14 mg/kg i.v.; for response vs control in vivo at 50 mg/kg: 50 mg/kg i.v.
Method: (c) Effect on Ehrlich Solid Cancer 5×10^6 Ehrlich cells were transplanted to ddY strain mice in groups of 7 members (male, 5-week old, weight=about 25 g) subcutaneously at the left groin on day 0. […] Only the aqueous 5% glucose solution was administered to the control group. […] From the (a) and (b) was calculated T/C (%), using the following equation: T/C (%)=(a/b)×100

[3] = test system: L-1210 ascites tumor; test: Effect on L-1210 ascites tumor (survival of tumor-transplanted mice); format: in vivo, CDF1 strain mice; settings: Mus musculus, L1210, ip, 720 h, survival observed 30 days, read-out: prolongation of survival time T/C; for response vs control in vivo at 25 mg/kg: 25 mg/kg i.p.; for response vs control in vivo at 5 mg/kg: 5 mg/kg i.p.; for response vs control in vivo at 1 mg/kg: 1 mg/kg i.p.
Method: (b) Effect on L-1210 Ascites Tumor
1×10^5 L-1210 cells were intraperitoneally transplanted to CDF1 strain mice in groups of 6 members (male, 5-week old, weight =about 25 g) on day 0. A test compound dissolved in an aqueous 5% glucose solution was intraperitoneally administered to the test group of the above mice twice on day 1 and day 5. Only the aqueous 5% glucose solution was administered to the control group. Incidentally, the 25 mg/kg administration of the test compound No. 30 was effected only once on day 1. There were examined (a) the average survival days of the test group and (b) the average survival days of the control group. The examination period for survival days was 30 days. From the (a) and (b) was calculated a prolongation of survival time [T/C (%)], using the following equation: […]

[4] = twice on day 1 and day 5, day 10, read-out: T/C (average tumor weight, treated/control)
[5] = only once on day 1, day 10, read-out: T/C (average tumor weight, treated/control)

CC1CC1c1cc2c(c3c1[nH]c1ccc(O)cc13)C(=O)N(CCN(C)C)C2=O (centres unmarked) [compound 74]
MIC [1]: 0.16 µg/mL (≈ 0.424 µM) | response vs control in vivo at 10 mg/kg [2, 4]: 19%

CN(C)CCN1C(=O)c2ccc3[nH]c4ccc(Cl)cc4c3c2C1=O [compound 9]
MIC [1]: 3.13 µg/mL (≈ 9.16 µM) | response vs control in vivo at 25 mg/kg ([3]; twice on day 1 and day 5): 131%

CN(C)CCN1C(=O)c2cc(-c3ccccc3)c3[nH]c4ccc(O)cc4c3c2C1=O [compound 27]
MIC [1]: 0.31 µg/mL (≈ 0.776 µM) | response vs control in vivo at 30 mg/kg ([2]; 30 mg/kg i.v., twice on day 1 and day 5, day 10, read-out: T/C (average tumor weight, treated/control)): 15%

COc1ccc2[nH]c3ccc4c(c3c2c1)C(=O)N(CCN(C)C)C4=O [compound 15]
MIC [1]: 3.13 µg/mL (≈ 9.28 µM) | response vs control in vivo at 25 mg/kg ([3]; twice on day 1 and day 5): 160%

CCN(CC)CCN1C(=O)c2cc(C)c3[nH]c4ccc(O)cc4c3c2C1=O.Cl [compound 42, N-(2-diethylaminoethyl)-6-hydroxy-1-methylcarbazole-3,4-dicarboximide hydrochloride]
MIC [1]: 0.063 µg/mL | response vs control in vivo at 7 mg/kg [2, 4]: 18%

Cc1cc2c(c3c1[nH]c1ccccc13)C(=O)N(CCN(C)C)C2=O [compound 2]
MIC [1]: 0.16 µg/mL (≈ 0.498 µM) | response vs control in vivo at 5 mg/kg ([3]; twice on day 1 and day 5): 180%

CN(C)CCN1C(=O)c2ccc3[nH]c4cc(O)ccc4c3c2C1=O [compound 28]
MIC [1]: 0.8 µg/mL (≈ 2.47 µM) | response vs control in vivo at 5 mg/kg ([3]; twice on day 1 and day 5): 176% | response vs control in vivo at 25 mg/kg ([3]; twice on day 1 and day 5): 379%

CN(C)CCN1C(=O)c2ccc3[nH]c4ccc(O)cc4c3c2C1=O.Cl [compound 23, N-(2-dimethylaminoethyl)-6-hydroxycarbazole-3,4-dicarboximide hydrochloride]
MIC [1]: 0.8 µg/mL | response vs control in vivo at 1 mg/kg ([3]; twice on day 1 and day 5): 128% | response vs control in vivo at 5 mg/kg ([3]; twice on day 1 and day 5): > 272% | response vs control in vivo at 15 mg/kg ([2]; 15 mg/kg i.v., twice on day 1 and day 5, day 10, read-out: T/C (average tumor weight, treated/control)): 10%

CN(C)CCN1C(=O)c2cc(C3CCC3)c3[nH]c4ccc(O)cc4c3c2C1=O.Cl [compound 59, N-(2-dimethylaminoethyl)-1-cyclobutyl-6-hydroxycarbazole-3,4-dicarboximide hydrochloride]
MIC [1]: 0.16 µg/mL | response vs control in vivo at 14 mg/kg [2, 4]: 12%

CCNCCN1C(=O)c2cc(C)c3[nH]c4ccc(O)cc4c3c2C1=O [compound 71]
MIC [1]: 0.16 µg/mL (≈ 0.474 µM) | response vs control in vivo at 10 mg/kg [2, 4]: 16%

Cc1cc2[nH]c3ccccc3c2c2c1C(=O)N(CCN(C)C)C2=O [compound 3]
MIC [1]: 0.1 µg/mL (≈ 0.311 µM) | response vs control in vivo at 25 mg/kg ([3]; twice on day 1 and day 5): 167%

CN(C)CCN1C(=O)c2cc(C3CC3)c3[nH]c4ccc(O)cc4c3c2C1=O [compound 49, N-(2-dimethylaminoethyl)-1-cyclopropyl-6-hydroxycarbazole-3,4-dicarboximidehydrochloride]
MIC [1]: 0.2 µg/mL | response vs control in vivo at 14 mg/kg [2, 4]: 19%

CCN(CC)CCN1C(=O)c2cc(OC)c3[nH]c4ccc(O)cc4c3c2C1=O.Cl [compound 70, N-(2-diethylaminoethyl)-6-hydroxy-1-methoxycarbazole-3,4-dicarboximide hydrochloride]
MIC [1]: 0.16 µg/mL | response vs control in vivo at 10 mg/kg [2, 4]: 18%

CN(C)CCN1C(=O)c2ccc3[nH]c4ccccc4c3c2C1=O [compound 1]
MIC [1]: 3.13 µg/mL (≈ 10.2 µM) | response vs control in vivo at 25 mg/kg ([3]; twice on day 1 and day 5): 137% | response vs control in vivo at 50 mg/kg ([2]; daily for six consecutive days (day 1 to 6), day 10, read-out: T/C (average tumor weight, treated/control)): 18%

Cc1cc2c(c3c1[nH]c1ccc(O)cc13)C(=O)N(CCN(C)C)C2=O.Cl [compound 24, N-(2-dimethylaminoethyl)-6-hydroxy-1-methylcarbazole-3,4-dicarboximide hydrochloride]
MIC [1]: 0.125 µg/mL | response vs control in vivo at 1 mg/kg ([3]; twice on day 1 and day 5): > 377% | response vs control in vivo at 5 mg/kg ([2]; 5 mg/kg i.v., twice on day 1 and day 5, day 10, read-out: T/C (average tumor weight, treated/control)): 12%

COc1cc2c(c3c1[nH]c1ccc(O)cc13)C(=O)N(CCN(C)C)C2=O [compound 38]
MIC [1]: 0.06 µg/mL (≈ 0.17 µM) | response vs control in vivo at 7 mg/kg [2, 4]: 12%

COc1ccc2[nH]c3cc(C)c4c(c3c2c1)C(=O)N(CCN(C)C)C4=O [compound 17]
MIC [1]: 0.16 µg/mL (≈ 0.455 µM) | response vs control in vivo at 5 mg/kg ([3]; twice on day 1 and day 5): 126% | response vs control in vivo at 25 mg/kg ([3]; twice on day 1 and day 5): 129%

CN(C)CCN1C(=O)c2ccc3c(c2C1=O)c1cc(O)ccc1n3C [compound 30]
MIC [1]: 0.1 µg/mL (≈ 0.296 µM) | response vs control in vivo at 5 mg/kg ([3]; twice on day 1 and day 5): 156% | response vs control in vivo at 25 mg/kg ([3]; only once on day 1): 172%

CN(C)CCN1C(=O)c2cc(Cl)c3[nH]c4ccc(O)cc4c3c2C1=O [compound 32]
MIC [1]: 0.31 µg/mL (≈ 0.866 µM) | response vs control in vivo at 25 mg/kg ([2]; 25 mg/kg i.v., only once on day 1, day 10, read-out: T/C (average tumor weight, treated/control)): 9%

Cc1cc2c(c3c1sc1ccc(O)cc13)C(=O)N(CCN(C)C)C2=O [compound 61]
MIC [1]: 0.08 µg/mL (≈ 0.226 µM) | response vs control in vivo at 10 mg/kg [2, 5]: 27%

CN(C)CCN1C(=O)c2cc(C3CCCCC3)c3[nH]c4ccc(O)cc4c3c2C1=O [compound 63]
MIC [1]: 1.25 µg/mL (≈ 3.08 µM)

COc1ccc2[nH]c3c(OC)cc4c(c3c2c1)C(=O)N(CCN(C)C)C4=O [compound 40]
MIC [1]: 0.2 µg/mL (≈ 0.544 µM)

COc1ccc2c(c1)[nH]c1c(C)cc3c(c12)C(=O)N(CCN(C)C)C3=O [compound 18]
MIC [1]: 0.8 µg/mL (≈ 2.28 µM)

CNCCN1C(=O)c2cc(C)c3[nH]c4ccc(O)cc4c3c2C1=O [compound 69]
MIC [1]: 0.25 µg/mL (≈ 0.773 µM) | response vs control in vivo at 10 mg/kg [2, 4]: 19%

COc1ccc2[nH]c3c(C4CCC4)cc4c(c3c2c1)C(=O)N(CCN(C)C)C4=O [compound 58]
MIC [1]: 1.25 µg/mL (≈ 3.19 µM)

COc1ccc2[nH]c3c(C)cc4c(c3c2c1)C(=O)N(CCN1CCOCC1)C4=O [compound 87]
MIC [1]: 5 µg/mL (≈ 12.7 µM)

Cc1cc2c(c3c1[nH]c1ccc(OC(=O)c4ccncc4)cc13)C(=O)N(CCN(C)C)C2=O [compound 83]
MIC [1]: 0.16 µg/mL (≈ 0.362 µM)

Cc1cc2c(c3c1oc1ccccc13)C(=O)N(CCN(C)C)C2=O [compound 43]
MIC [1]: 2.5 µg/mL (≈ 7.76 µM)

CN(C)CCN1C(=O)c2ccc3[nH]c4cc(O)c(O)cc4c3c2C1=O [compound 31]
response vs control in vivo at 5 mg/kg ([3]; twice on day 1 and day 5): 176% | response vs control in vivo at 50 mg/kg [2, 5]: 31%

Cc1cc2c(c3c1[nH]c1ccc(O)cc13)C(=O)N(CCN(CCO)CCO)C2=O [compound 91]
MIC [1]: 1.25 µg/mL (≈ 3.15 µM)

CCN(CC)CCN1C(=O)c2cc(Oc3ccccc3)c3[nH]c4ccc(O)cc4c3c2C1=O [compound 89]
MIC [1]: 0.16 µg/mL (≈ 0.361 µM)

Cc1cc2c(c3c1[nH]c1ccc(O)cc13)C(=O)N(CCNC(C)C)C2=O [compound 76]
MIC [1]: 0.16 µg/mL (≈ 0.455 µM)

COc1ccc2c(c1)c1c3c(ccc1n2C(C)=O)C(=O)N(CCN(C)C)C3=O [compound 21]
MIC [1]: 3.13 µg/mL (≈ 8.25 µM)

CN(C)CCN1C(=O)c2ccc3[nH]c4cc5c(cc4c3c2C1=O)OCO5 [compound 22]
MIC [1]: 0.16 µg/mL (≈ 0.455 µM) | response vs control in vivo at 5 mg/kg ([3]; twice on day 1 and day 5): 143% | response vs control in vivo at 25 mg/kg ([3]; twice on day 1 and day 5): 160%

CN(C)CCN1C(=O)c2cc(C3CCCC3)c3[nH]c4ccc(O)cc4c3c2C1=O [compound 72]
MIC [1]: 0.16 µg/mL (≈ 0.409 µM)

COc1ccc2sc3c(C)cc4c(c3c2c1)C(=O)N(CCN(C)C)C4=O [compound 56]
MIC [1]: 0.4 µg/mL (≈ 1.09 µM)

CCc1cc2c(c3c1[nH]c1ccc(O)cc13)C(=O)N(CCN(C)C)C2=O [compound 39]
MIC [1]: 0.04 µg/mL (≈ 0.114 µM) | response vs control in vivo at 10 mg/kg [2, 4]: 20%

COc1ccc2[nH]c3c(C)cc4c(c3c2c1)C(=O)N(CCNCCO)C4=O [compound 82]
MIC [1]: 0.4 µg/mL (≈ 1.09 µM)

COc1cccc2c1[nH]c1ccc3c(c12)C(=O)N(CCN(C)C)C3=O [compound 13]
MIC [1]: 3.13 µg/mL (≈ 9.28 µM)
